Where two headings read alike, the source gives them in different places.
Key:
[1] = tested on: genotype 3a (S52) stable HCV replicon in Huh-7-derived cells; test: Stable subgenomic HCV replicon EC50, genotype 3a (Renilla luciferase); assay type: cell-based, hepatitis C virus; settings: 72 h, read-out: EC50 3A RLUC
[2] = tested on: genotype 4a (ED43) stable HCV replicon in Huh-7-derived cells; test: Stable subgenomic HCV replicon EC50, genotype 4a (Renilla luciferase); assay type: cell-based, hepatitis C virus; settings: 72 h, read-out: EC50 4A RLUC
In short: (§1)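 Compounds, three-fold diluted, were applied to Huh-7-derived cells harbouring luciferase replicons (genotype 1a H77, 1b Con1, 2a JFH-1, 4a ED43, with strain-specific adaptive mutations). Seventy-two hours later, intracellular replication was gauged by Renilla luciferase activity and EC50 derived by regression.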

[3] = tested on: genotype 1b (Con1) stable HCV replicon in Huh-7-derived cells; test: Stable subgenomic HCV replicon EC50, genotype 1b (Renilla luciferase); assay type: cell-based, hepatitis C virus; settings: stable replicon genotype 1b, 72 h, read-out: EC50 1B RLUC
In short: as §1

[4] = tested on: genotype 2a (JFH-1) stable HCV replicon in Huh-7-derived cells; test: Stable subgenomic HCV replicon EC50, genotype 2a (Renilla luciferase); assay type: cell-based, hepatitis C virus; settings: stable replicon genotype 2a, 72 h, read-out: EC50 2A RLUC
In short: as §1

[5] = tested on: genotype 1b (Con1) wild type transient HCV replicon in Huh-7-derived cells; test: Transient-transfected HCV replicon EC50, genotype 1b wild type; assay type: cell-based, hepatitis C virus; settings: 72 h, transient-transfected replicon genotype 1b wild type, read-out: EC50 1B WT
[6] = tested on: genotype 1b NS3/4a protease inhibitor resistant variant D168A transient HCV replicon in Huh-7-derived cells; test: Transient-transfected HCV replicon EC50, genotype 1b D168A; assay type: cell-based, hepatitis C virus; settings: 72 h
[7] = tested on: genotype 1a (H77) stable HCV replicon in Huh-7-derived cells; test: Stable subgenomic HCV replicon EC50, genotype 1a (Renilla luciferase); assay type: cell-based, hepatitis C virus; settings: stable replicon genotype 1a, 72 h, read-out: EC50 1A RLUC
In short: as §1

[8] = tested on: genotype 1a (H77) wild type transient HCV replicon in Huh-7-derived cells; test: Transient-transfected HCV replicon EC50, genotype 1a wild type; assay type: cell-based, hepatitis C virus; settings: 72 h, transient-transfected replicon genotype 1a wild type, read-out: EC50 1A WT
[9] = target: HCV NS3 protease domain genotype 3a (Hepatitis C virus genotype 3a, UniProt Q81258); test: Ki determination, NS3 protease genotype 3a (fluorogenic depsipeptide substrate); assay type: biochemical; settings: 200 pM enzyme, NS4A peptide
HCV NS3 protease domain genotype 3a, sequence (Q81258 whole entry, looked up, the tested form may be a part): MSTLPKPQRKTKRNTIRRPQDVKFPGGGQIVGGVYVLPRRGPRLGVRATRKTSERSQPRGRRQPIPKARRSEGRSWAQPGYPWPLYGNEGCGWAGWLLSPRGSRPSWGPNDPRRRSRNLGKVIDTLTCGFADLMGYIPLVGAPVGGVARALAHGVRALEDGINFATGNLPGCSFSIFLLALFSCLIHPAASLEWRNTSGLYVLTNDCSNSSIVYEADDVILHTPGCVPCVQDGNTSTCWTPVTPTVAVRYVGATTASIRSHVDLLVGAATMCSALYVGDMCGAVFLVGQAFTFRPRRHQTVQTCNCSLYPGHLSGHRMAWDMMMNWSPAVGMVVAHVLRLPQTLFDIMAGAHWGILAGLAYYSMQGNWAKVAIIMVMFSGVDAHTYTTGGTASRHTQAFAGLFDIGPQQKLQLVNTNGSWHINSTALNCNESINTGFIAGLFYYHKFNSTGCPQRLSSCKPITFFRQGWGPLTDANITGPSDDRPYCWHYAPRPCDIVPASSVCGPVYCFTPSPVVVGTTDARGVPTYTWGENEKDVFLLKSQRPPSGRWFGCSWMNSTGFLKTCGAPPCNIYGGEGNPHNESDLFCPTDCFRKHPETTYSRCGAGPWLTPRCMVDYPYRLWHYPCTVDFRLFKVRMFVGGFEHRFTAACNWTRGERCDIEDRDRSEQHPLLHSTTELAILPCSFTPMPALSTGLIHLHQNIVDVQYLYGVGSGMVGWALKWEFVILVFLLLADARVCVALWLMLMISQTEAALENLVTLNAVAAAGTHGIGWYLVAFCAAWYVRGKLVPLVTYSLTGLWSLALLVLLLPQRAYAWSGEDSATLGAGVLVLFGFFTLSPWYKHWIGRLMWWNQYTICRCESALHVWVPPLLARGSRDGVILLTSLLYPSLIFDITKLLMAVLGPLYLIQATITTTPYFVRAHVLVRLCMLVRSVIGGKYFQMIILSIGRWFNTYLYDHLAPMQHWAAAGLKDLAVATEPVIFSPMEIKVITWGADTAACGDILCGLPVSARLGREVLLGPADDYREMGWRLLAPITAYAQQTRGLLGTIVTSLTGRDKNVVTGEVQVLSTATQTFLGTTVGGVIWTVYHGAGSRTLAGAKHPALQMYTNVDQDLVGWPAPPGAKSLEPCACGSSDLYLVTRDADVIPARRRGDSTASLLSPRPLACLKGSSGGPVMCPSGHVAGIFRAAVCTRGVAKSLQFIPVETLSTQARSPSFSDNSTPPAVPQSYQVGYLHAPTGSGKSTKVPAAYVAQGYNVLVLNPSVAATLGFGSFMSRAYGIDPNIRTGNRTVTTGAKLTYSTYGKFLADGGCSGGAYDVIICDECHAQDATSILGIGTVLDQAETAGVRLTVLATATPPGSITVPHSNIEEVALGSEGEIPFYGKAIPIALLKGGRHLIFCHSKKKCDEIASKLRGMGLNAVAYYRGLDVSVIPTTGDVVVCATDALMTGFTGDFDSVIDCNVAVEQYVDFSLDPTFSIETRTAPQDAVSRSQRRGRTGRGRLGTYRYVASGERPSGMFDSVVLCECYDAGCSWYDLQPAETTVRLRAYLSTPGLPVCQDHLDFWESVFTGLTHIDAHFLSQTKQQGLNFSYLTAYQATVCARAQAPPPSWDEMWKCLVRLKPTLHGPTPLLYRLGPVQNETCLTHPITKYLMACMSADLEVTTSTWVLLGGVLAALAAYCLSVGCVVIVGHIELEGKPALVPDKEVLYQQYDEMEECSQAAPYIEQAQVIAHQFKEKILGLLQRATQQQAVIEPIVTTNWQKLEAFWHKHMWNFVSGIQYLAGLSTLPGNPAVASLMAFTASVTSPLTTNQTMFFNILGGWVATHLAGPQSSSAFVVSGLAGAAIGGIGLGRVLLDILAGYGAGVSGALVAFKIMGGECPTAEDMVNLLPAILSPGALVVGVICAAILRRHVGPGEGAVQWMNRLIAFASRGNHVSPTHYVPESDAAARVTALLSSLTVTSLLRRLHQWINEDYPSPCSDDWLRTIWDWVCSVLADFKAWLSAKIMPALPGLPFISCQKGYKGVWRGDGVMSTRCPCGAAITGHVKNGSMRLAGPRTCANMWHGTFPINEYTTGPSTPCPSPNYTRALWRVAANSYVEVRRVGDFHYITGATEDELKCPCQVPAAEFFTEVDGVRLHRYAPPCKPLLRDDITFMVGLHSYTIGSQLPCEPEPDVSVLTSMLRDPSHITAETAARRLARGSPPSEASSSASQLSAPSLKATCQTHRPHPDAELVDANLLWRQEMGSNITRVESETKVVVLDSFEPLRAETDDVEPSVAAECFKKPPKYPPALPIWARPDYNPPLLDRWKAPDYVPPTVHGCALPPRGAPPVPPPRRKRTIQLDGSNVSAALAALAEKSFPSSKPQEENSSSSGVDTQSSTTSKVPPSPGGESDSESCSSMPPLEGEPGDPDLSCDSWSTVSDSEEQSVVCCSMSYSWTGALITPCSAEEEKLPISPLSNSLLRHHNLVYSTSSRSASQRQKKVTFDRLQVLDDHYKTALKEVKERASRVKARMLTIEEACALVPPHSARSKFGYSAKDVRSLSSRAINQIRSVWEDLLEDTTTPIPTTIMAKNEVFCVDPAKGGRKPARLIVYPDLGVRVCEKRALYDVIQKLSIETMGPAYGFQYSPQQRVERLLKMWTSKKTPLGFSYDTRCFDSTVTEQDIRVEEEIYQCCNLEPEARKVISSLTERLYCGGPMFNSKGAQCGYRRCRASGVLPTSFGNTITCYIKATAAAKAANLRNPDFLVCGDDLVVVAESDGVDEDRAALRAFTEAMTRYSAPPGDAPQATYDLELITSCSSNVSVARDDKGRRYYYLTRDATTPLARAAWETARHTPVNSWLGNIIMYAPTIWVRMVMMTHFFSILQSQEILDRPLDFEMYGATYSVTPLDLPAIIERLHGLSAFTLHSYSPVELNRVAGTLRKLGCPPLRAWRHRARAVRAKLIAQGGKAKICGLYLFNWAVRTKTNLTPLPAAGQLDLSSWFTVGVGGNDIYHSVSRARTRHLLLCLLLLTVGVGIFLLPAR
Excerpt: Purified NS3 protease domain (amino acids 1-181) of the genotype 1b and 3a virus were generated as above. The internally quenched fluorogenic depsipeptide substrate Ac-DED(Edans)-EEAbuΨ[COO]ASK(Dabcyl)-NH2 and a synthetic peptide containing the hydrophobic core residues of the NS4A protein cofactor ([…]; NS4A peptide) were obtained from Anaspec, Inc. (San Jose, Calif.). Other chemicals and biochemicals were of reagent grade or better and were purchased from standard suppliers.
Reactions were run at room temperature in buffer consisting of 50 mM HEPES, 40% glycerol, 0.05% Triton X-100, 10 mM DTT, and 10% DMSO. The final assay solutions contained 50 pM NS3 genotype 1 b protease or 200 pM genotype 3a protease, 20 μM NS4A peptide, and 4 μM substrate (genotype 1b) or 2 μM substrate (genotype 3a). Inhibitor concentrations varied from 100 nM to 5 pM in 3-fold dilutions, and no-inhibitor controls were included.
Compound dilutions were made in DMSO at 20× final concentration. Reaction mixtures were prepared in 96-well assay plates. A solution of enzyme and NS4A peptide in assay buffer (25 μL volume with both reagents at 4× final concentration) was mixed with 45 μL assay buffer and 5 μL of either inhibitor or DMSO, and pre-incubated at room temperature for 1 hour. The reaction was started by addition of 25 μL substrate solution at 4× final concentration. Plates were mixed vigorously for 5-10 seconds and reactions were allowed to proceed for 90 minutes, fluorescence was measured every 30 s between 90 and 120 minutes reaction time using a Tecan InfiniTe M1000 or PerkinElmer Envision multimode plate reader with an excitation wavelength of 340 nm and an emission wavelength of 490 nm.
Rates were calculated from the progress curves at steady state, in the time frame of 90-120 minutes after addition of substrate. To determine the Ki, rates were plotted as a function of inhibitor concentration, and the data were fit with equation 1 (Morrison, J. F., Biochimica et Biophysica Acta 1969, 185, 269-286) to calculate Ki^app using GraphPad Prism 5. Active fraction of enzyme was determined by active site titration with known potent inhibitors. Ki was calculated from Ki^app/(1+[[S]/Km]).

[10] = tested on: genotype 3a (S52) wild type transient HCV replicon in Huh-7-derived cells; test: Transient-transfected HCV replicon EC50, genotype 3a wild type; assay type: cell-based, hepatitis C virus; settings: transient-transfected replicon genotype 3a wild type, 72 h, read-out: EC50 3A WT
[11] = tested on: genotype 1a NS3/4a protease inhibitor resistant variant R155K transient HCV replicon in Huh-7-derived cells; test: Transient-transfected HCV replicon EC50, genotype 1a R155K; assay type: cell-based, hepatitis C virus; settings: 72 h
[12] = Hepatitis C virus, read-out: EC50 1B D168A, transient-transfected replicon genotype 1b D168A resistant variant, 72 h
[13] = Hepatitis C virus, read-out: EC50 1A R155K, transient-transfected replicon genotype 1a R155K resistant variant, 72 h

Compound	EC50 ([1]; Hepatitis C virus) [nM]	EC50 ([2]; Hepatitis C virus) [nM]	EC50 ([3]; Hepatitis C virus) [nM]	EC50 ([4]; Hepatitis C virus) [nM]	EC50 ([5]; Hepatitis C virus) [nM]	EC50 [6, 12] [nM]	EC50 ([7]; Hepatitis C virus) [nM]	EC50 ([8]; Hepatitis C virus) [nM]	Ki [9] [nM]	EC50 ([10]; Hepatitis C virus) [nM]	EC50 [11, 13] [nM]	other results
CCOc1ccc2nc3c(nc2c1)O[C@H]1CN(C(=O)[C@H](C(C)(C)C)NC(=O)O[C@@H]2C[C@H]2CCCCC3)[C@H](C(=O)N[C@]2(C(=O)NS(=O)(=O)C3(C)CC3)C[C@H]2C(F)F)[C@@H]1CC [Example 69, (1aR,5S,8S,9S,10R,22aR)-5-tert-butyl-N-[(1R,2R)-2-(difluoromethyl)-1-{[(1-methylcyclopropyl)sulfonyl]carbamoyl}cyclopropyl]-14-ethoxy-9-ethyl-3,6-dioxo-1,1a,3,4,5,6,9,10,18,19,20,21,22,22a-tetradecahydro-8H-7,10-methanocyclopropa[18,19][1,10,3,6]dioxadiazacyclononadecino[11,12-b]quinoxaline-8-carboxamide]	64	5.8	4.9	11	3.9	28	5.2	8.2	0.17	42	15	
CC[C@@H]1[C@@H]2CN(C(=O)[C@H](C(C)(C)C)NC(=O)O[C@@H]3CCCC[C@H]3CCCCCc3nc4ccc(OC)cc4nc3O2)[C@@H]1C(=O)N[C@]1(C(=O)NS(=O)(=O)C2CC2)C[C@H]1C(F)F [Example 66, (4aR,8S,11 S,12S,13R,25aR)-8-tert-butyl-N-[(1R,2R)-1-[(cyclopropylsulfonyl)carbamoyl]-2-(difluoromethyl)cyclopropyl]-12-ethyl-17-methoxy-6,9-dioxo-2,3,4,4a,6,7,8,9,12,13,21,22,23,24,25,25a-hexadecahydro-1H,11H-10,13-methanoquinoxalino[2,3-k][1,10,3,6]benzodioxadiazacyclononadecine-11-carboxamide]	1790	25	20	105	14	396	37	35	0.06	735	240	
COc1ccc2nc3c(nc2c1)O[C@H]1CN(C(=O)[C@H](C(C)(C)C)NC(=O)O[C@@H]2CCCC[C@H]2CCCCC3(F)F)[C@H](C(=O)N[C@]2(C(=O)NS(=O)(=O)C3CC3)C[C@H]2C(F)F)[C@@H]1C [Example 68, (4aR,8S,11 S,12S,13R,25aS)-8-tert-butyl-N-[(1R,2R)-1-[(cyclopropylsulfonyl)carbamoyl]-2-(difluoromethyl)cyclopropyl]-21,21-difluoro-17-methoxy-12-methyl-6,9-dioxo-2,3,4,4a,6,7,8,9,12,13,21,22,23,24,25,25a-hexadecahydro-1H,11H-10,13-methanoquinoxalino[2,3-k][1,10,3,6]benzodioxadiazacyclononadecine-11-carboxamide]	364	9.4	7.7	18	4.4	78	13	14	0.63	139	37	
CC[C@@H]1[C@@H]2CN(C(=O)[C@H](C(C)(C)C)NC(=O)O[C@]3(C)C[C@H]3CCCCCc3nc4ccc(OC)cc4nc3O2)[C@@H]1C(=O)N[C@]1(C(=O)NS(=O)(=O)C2(C)CC2)C[C@H]1C(F)F [Example 7, (1aR,5S,8S,9S,10R,22aR)-5-tert-butyl-N-[(1R,2R)-2-(difluoromethyl)-1-{[(1-methylcyclopropyl)sulfonyl]carbamoyl}cyclopropyl]-9-ethyl-14-methoxy-1a-methyl-3,6-dioxo-1,1a,3,4,5,6,9,10,18,19,20,21,22,22a-tetradecahydro-8H-7,10-methanocyclopropa[18,19][1,10,3,6] dioxadiazacyclononadecino[11,12-b]quinoxaline-8-carboxamide]	67	3.2	3.8	4.2	2.3	20	4.9	3.8	0.06	14	6.7	
(1aR,5S,8S,9S,10R,22aR)-5-tert-butyl-14-chloro-N-[(1R,2R)-2-(difluoromethyl)-1-{[(1-methylcyclopropyl)sulfonyl]carbamoyl}cyclopropyl]-18,18-difluoro-9-methyl-3,6-dioxo-1,1a,3,4,5,6,9,10,18,19,20,21,22,22a-tetradecahydro-8H-7,10-methanocyclopropa[18,19][3,6]dioxadiazacyclononadecino[11,12-b]quinoxaline-8-carboxamide [Example 88]									0.29			EC50 ([1]; stable replicon genotype 3a, Renilla luciferase): 105 nM; EC50 ([2]; stable replicon genotype 4a, Renilla luciferase): 4.1 nM; EC50 [3]: 4.6 nM; EC50 [4]: 2.7 nM; EC50 [5]: 5.5 nM; EC50 ([6]; transient-transfected replicon genotype 1b D168A resistant variant, read-out: EC50 1B D168A): 24 nM; EC50 [7]: 9.3 nM; EC50 [8]: 5 nM; EC50 [10]: 35 nM; EC50 ([11]; transient-transfected replicon genotype 1a R155K resistant variant, read-out: EC50 1A R155K): 14 nM
CC[C@@H]1[C@@H]2CN(C(=O)[C@H](C(C)(C)C)NC(=O)O[C@@H]3C[C@H]3CCCCC(F)(F)c3nc4ccc(OC)cc4nc3O2)[C@@H]1C(=O)N[C@]1(C(=O)NS(=O)(=O)C2(C)CC2)C[C@H]1C(F)F [Example 17, (1aR,5S,8S,9S,10R,22aR)-5-tert-butyl-N-[(1R,2R)-2-(difluoromethyl)-1-{[(1-methylcyclopropyl)sulfonyl]carbamoyl}cyclopropyl]-9-ethyl-18,18-difluoro-14-methoxy-3,6-dioxo-1,1a,3,4,5,6,9,10,18,19,20,21,22,22a-tetradecahydro-8H-7,10-methanocyclopropa[18,19][1,10,3,6]dioxadiazacyclononadecino[11,12-b]quinoxaline-8-carboxamide]	15	2.9	3.3	3.7	1.7	4.3	3.9	2.9	0.06	6.1	2.8	

Source: patent US10335409B2 (priority 2012, dated 2019)
